Experimental findings from patent publication US9321776B2, “Isochromene derivatives as phoshoinositide 3-kinases inhibitors” (CHIESI FARMACEUTICI S.p.A., priority 2013, dated 2016) are described below.

Common to all, as to assay: PI3K enzyme inhibitory activity in the cell free assay (ADP-Glo Kinase Assay)
Assay type in all cases: biochemical
Background: ADP-Glo turns the ADP formed in a reaction into a luminescent signal.

One assay concerns the target T1, PI3Kδ (Homo sapiens, UniProt O00329).
T1 construct: purchased Millipore Ltd (Billerica, Mass.)
T1 sequence (O00329 1-1044): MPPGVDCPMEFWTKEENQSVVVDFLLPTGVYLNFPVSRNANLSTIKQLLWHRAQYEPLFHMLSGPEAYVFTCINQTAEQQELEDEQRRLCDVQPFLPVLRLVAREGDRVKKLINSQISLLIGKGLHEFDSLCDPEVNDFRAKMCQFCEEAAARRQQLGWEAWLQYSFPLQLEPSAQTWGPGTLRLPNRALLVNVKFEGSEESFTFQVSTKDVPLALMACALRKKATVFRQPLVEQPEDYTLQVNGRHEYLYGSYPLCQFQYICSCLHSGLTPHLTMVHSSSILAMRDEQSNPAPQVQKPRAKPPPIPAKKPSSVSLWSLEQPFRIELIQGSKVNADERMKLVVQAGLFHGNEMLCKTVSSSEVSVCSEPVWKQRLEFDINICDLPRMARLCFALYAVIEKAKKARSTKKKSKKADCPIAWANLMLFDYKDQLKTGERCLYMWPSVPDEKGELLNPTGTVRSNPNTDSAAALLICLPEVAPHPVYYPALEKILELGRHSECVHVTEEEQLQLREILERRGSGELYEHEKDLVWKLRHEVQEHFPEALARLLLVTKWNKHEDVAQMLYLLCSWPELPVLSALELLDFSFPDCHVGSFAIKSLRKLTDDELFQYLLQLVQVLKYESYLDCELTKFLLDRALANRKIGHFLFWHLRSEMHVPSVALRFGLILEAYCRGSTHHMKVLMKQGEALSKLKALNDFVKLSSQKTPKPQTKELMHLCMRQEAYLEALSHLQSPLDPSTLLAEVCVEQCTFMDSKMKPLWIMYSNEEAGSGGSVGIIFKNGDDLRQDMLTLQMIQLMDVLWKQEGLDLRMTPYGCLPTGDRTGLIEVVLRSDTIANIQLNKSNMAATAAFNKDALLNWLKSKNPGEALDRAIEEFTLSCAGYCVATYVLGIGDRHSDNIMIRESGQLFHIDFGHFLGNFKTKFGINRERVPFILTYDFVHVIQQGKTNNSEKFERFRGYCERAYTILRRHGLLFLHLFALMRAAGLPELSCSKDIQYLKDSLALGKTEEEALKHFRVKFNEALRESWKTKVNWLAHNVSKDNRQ
As to conditions: human recombinant PI3Kδ, ATP 80 μM; read-out: PI3K delta inhibition.

Another assay addresses T2, PI3Kγ (Homo sapiens, UniProt P48736).
T2 construct: purchased Millipore Ltd (Billerica, Mass.)
As to conditions: human recombinant PI3Kγ, ATP 30 μM; read-out: PI3K gamma inhibition.

A further assay concerns the target T3, PI3Kα (Homo sapiens, UniProt P42336).
T3 construct: purchased Millipore Ltd (Billerica, Mass.)
As to conditions: human recombinant PI3Kα, ATP 50 μM; read-out: PI3K alpha inhibition.

In the next assay the target is T4, PI3Kβ (Homo sapiens, UniProt P42338).
T4 construct: purchased Millipore Ltd (Billerica, Mass.)
To be noted: human recombinant PI3Kβ, ATP 100 μM; read-out: PI3K beta inhibition.

Where a name gives a salt, the structure may show the parent alone.

T3 sequence (P42336 whole entry): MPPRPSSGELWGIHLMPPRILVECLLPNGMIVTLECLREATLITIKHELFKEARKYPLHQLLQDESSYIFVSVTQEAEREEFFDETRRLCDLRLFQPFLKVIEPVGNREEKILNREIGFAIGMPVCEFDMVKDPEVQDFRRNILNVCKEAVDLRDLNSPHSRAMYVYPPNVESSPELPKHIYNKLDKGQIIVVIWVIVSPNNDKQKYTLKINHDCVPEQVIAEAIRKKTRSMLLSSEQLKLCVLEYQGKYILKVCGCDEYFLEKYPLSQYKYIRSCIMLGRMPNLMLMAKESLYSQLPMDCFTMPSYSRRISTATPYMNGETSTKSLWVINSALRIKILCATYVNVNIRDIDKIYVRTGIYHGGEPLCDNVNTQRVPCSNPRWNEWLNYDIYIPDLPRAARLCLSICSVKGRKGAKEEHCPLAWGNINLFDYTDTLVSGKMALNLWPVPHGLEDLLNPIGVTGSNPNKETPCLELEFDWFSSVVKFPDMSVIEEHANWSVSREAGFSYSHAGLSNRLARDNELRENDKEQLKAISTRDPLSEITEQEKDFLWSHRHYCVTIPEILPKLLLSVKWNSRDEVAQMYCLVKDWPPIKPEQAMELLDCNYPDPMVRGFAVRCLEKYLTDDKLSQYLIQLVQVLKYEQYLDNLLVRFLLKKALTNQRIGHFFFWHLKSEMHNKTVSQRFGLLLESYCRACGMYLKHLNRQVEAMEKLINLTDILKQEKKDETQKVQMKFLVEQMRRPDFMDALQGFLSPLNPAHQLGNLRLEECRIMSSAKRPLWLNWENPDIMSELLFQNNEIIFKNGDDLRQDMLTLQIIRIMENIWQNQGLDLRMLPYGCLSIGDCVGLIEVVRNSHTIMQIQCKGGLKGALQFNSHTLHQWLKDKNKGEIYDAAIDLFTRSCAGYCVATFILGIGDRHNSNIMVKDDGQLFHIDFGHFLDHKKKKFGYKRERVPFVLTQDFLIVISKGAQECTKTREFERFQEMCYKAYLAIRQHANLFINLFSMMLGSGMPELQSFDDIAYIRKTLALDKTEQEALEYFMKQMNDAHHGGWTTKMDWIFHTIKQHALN
T4 sequence (P42338 whole entry): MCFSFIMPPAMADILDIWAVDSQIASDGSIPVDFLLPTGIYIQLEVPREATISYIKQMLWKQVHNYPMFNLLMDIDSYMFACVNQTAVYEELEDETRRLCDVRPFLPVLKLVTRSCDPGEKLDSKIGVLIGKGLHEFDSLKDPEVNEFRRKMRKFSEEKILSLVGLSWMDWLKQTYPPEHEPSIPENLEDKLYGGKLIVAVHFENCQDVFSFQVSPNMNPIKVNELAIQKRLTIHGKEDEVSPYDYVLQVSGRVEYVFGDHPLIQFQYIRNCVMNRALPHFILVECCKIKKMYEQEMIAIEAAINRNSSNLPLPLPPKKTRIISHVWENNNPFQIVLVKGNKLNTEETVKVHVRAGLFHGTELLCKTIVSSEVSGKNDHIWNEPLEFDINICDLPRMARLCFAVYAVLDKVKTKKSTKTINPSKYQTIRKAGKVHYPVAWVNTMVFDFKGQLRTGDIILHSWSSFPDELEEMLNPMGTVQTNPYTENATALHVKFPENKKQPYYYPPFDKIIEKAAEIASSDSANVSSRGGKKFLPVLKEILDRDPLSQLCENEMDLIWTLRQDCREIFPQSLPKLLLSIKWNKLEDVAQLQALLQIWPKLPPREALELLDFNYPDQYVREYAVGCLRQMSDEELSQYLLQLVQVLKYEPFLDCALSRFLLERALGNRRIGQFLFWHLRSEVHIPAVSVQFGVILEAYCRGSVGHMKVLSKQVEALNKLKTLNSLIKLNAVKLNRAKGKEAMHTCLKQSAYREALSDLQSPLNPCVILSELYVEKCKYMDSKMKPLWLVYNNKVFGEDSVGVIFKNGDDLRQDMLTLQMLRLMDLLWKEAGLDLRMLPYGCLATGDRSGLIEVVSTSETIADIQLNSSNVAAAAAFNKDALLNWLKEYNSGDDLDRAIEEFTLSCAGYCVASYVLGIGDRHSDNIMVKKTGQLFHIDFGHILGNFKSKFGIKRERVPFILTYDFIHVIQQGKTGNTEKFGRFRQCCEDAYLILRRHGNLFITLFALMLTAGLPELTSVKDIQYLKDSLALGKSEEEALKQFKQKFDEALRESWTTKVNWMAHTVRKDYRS
T2 sequence (P48736 whole entry): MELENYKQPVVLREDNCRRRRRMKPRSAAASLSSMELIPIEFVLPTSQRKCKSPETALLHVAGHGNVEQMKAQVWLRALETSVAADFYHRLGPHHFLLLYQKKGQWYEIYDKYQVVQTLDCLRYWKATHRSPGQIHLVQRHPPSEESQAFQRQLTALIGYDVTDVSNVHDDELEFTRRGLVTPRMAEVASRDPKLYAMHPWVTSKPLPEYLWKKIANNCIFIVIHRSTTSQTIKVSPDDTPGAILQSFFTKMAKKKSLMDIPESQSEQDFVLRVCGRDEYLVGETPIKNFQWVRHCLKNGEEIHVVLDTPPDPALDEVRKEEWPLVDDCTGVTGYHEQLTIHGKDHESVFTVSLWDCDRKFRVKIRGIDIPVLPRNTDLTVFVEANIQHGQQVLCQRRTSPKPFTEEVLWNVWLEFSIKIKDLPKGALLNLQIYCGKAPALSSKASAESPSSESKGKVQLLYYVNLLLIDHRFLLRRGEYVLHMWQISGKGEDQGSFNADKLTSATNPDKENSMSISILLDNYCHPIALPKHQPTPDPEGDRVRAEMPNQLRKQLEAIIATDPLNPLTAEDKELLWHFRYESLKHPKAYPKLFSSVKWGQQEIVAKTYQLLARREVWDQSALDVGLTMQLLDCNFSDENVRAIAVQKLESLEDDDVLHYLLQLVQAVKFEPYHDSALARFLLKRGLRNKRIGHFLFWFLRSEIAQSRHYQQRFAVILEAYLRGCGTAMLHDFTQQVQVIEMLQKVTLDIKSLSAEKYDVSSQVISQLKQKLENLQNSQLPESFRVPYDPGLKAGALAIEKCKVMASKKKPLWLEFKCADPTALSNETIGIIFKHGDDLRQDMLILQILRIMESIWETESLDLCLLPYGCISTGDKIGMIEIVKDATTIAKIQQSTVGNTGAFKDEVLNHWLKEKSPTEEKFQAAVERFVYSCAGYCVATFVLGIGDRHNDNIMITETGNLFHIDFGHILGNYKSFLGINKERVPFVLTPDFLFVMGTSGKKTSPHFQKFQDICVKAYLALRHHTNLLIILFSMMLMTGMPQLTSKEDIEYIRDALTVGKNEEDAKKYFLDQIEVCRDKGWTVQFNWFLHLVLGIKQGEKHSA

With `CC(c1oc(=O)c2ccccc2c1-c1ccc(CN2CCCCC2)s1)n1nc(-c2cc(O)cc(F)c2)c2c(N)ncnc21` (single isomer, unassigned) [Example 68b, 3-(1-(4-amino-3-(3-fluoro-5-hydroxyphenyl)-1H-pyrazolo[3,4-d]pyrimidin-1-yl)ethyl)-4-(5-(piperidin-1-ylmethyl)thiophen-2-yl)-1H-isochromen-1-one hydrochloride single enantiomers], the IC50 on PI3Kδ was < 10 nM; on PI3Kγ, 10 to 1000 nM; at PI3Kα, 10 to 1000 nM; at PI3Kβ, 10 to 1000 nM.

With `CC(c1oc(=O)c2ccccc2c1-c1ccc(CN2CCN(CCO)CC2)s1)n1nc(-c2cc(O)cc(F)c2)c2c(N)ncnc21` (single isomer, unassigned) [Example 76b, 3-(1-(4-amino-3-(3-fluoro-5-hydroxyphenyl)-1H-pyrazolo[3,4-d]pyrimidin-1-yl)ethyl)-4-(5-((4-(2-hydroxyethyl)piperazin-1-yl)methyl)thiophen-2-yl)-1H-isochromen-1-one hydrochloride], the IC50 is < 10 nM on PI3Kδ, 10 to 1000 nM on PI3Kγ, 10 to 1000 nM at PI3Kα and 10 to 1000 nM on PI3Kβ.

In the case of `CC(c1oc(=O)c2ccccc2c1-c1cccc(CCCN(C)C)c1)n1nc(-c2cc(O)cc(F)c2)c2c(N)ncnc21` (single isomer, unassigned) [Example 137b, 3-(1-(4-amino-3-(3-fluoro-5-hydroxyphenyl)-1H-pyrazolo[3,4-d]pyrimidin-1-yl)ethyl)-4-(3-(3-(dimethylamino)propyl)phenyl)-1H-isochromen-1-one single enantiomers], the IC50 was < 10 nM at PI3Kδ, 10 to 1000 nM at PI3Kγ, > 1000 nM at PI3Kα and 10 to 1000 nM at PI3Kβ.

Regarding `CC(c1oc(=O)c2ccccc2c1-c1ccc(CCCN(C)C)cc1)n1nc(-c2cc(O)cc(F)c2)c2c(N)ncnc21` (single isomer, unassigned) [Example 138b, 3-(1-(4-amino-3-(3-fluoro-5-hydroxyphenyl)-1H-pyrazolo[3,4-d]pyrimidin-1-yl)ethyl)-4-(4-(3-(dimethylamino)propyl)phenyl)-1H-isochromen-1-one single enantiomers], the IC50 on PI3Kδ was < 10 nM; at PI3Kγ, 10 to 1000 nM; on PI3Kα it was > 1000 nM; at PI3Kβ, > 1000 nM.

For `CC(c1oc(=O)c2ccccc2c1-c1cncs1)n1nc(-c2cc(O)cc(F)c2)c2c(N)ncnc21` (single isomer, unassigned) [Example 167a, 3-(1-(4-amino-3-(3-fluoro-5-hydroxyphenyl)-1H-pyrazolo[3,4-d]pyrimidin-1-yl)ethyl)-4-(thiazol-5-yl)-1H-isochromen-1-one single enantiomer], the IC50 on PI3Kδ was < 10 nM; at PI3Kγ, 10 to 1000 nM; at PI3Kα, 10 to 1000 nM; on PI3Kβ, 10 to 1000 nM.

As to `CC(c1oc(=O)c2ccccc2c1-c1cncs1)n1nc(-c2cc(O)cc(F)c2)c2c(N)ncnc21` (single isomer, unassigned) [Example 167b, 3-(1-(4-amino-3-(3-fluoro-5-hydroxyphenyl)-1H-pyrazolo[3,4-d]pyrimidin-1-yl)ethyl)-4-(thiazol-5-yl)-1H-isochromen-1-one single enantiomer], the IC50 at PI3Kδ is < 10 nM; at PI3Kγ it was 10 to 1000 nM; at PI3Kα, > 1000 nM; on PI3Kβ, 10 to 1000 nM.

As to `CC(c1oc(=O)c2ccccc2c1C1=CCCN(Cc2ccccc2)C1)n1nc(-c2cc(O)cc(F)c2)c2c(N)ncnc21` (single isomer, unassigned) [Example 169a, 3-(1-(4-amino-3-(3-fluoro-5-hydroxyphenyl)-1H-pyrazolo[3,4-d]pyrimidin-1-yl)ethyl)-4-(1-benzyl-1,2,5,6-tetrahydropyridin-3-yl)-1H-isochromen-1-one hydrochloride single enantiomers], the IC50 at PI3Kδ is < 10 nM; on PI3Kγ, 10 to 1000 nM; on PI3Kα, > 1000 nM; on PI3Kβ it was 10 to 1000 nM.

As for `CC(Nc1ncnc2[nH]cnc12)c1oc(=O)c2ccccc2c1C1=CCNCC1` (stereo not shown) [Example 23, 3-(1-(9H-Purin-6-ylamino)ethyl)-4-(1,2,3,6-tetrahydropyridin-4-yl)-1H-isochromen-1-one hydrochloride], the IC50 at PI3Kδ is < 10 nM; at PI3Kγ, > 1000 nM; at PI3Kα, > 1000 nM; on PI3Kβ, 10 to 1000 nM.

In the case of `Cc1cccc(-c2c(C(C)n3nc(-c4cc(O)cc(F)c4)c4c(N)ncnc43)oc(=O)c3ccccc23)c1` (stereo not shown) [Example 41, 3-(1-(4-Amino-3-(3-fluoro-5-hydroxyphenyl)-1H-pyrazolo[3,4-d]pyrimidin-1-yl)ethyl)-4-m-tolyl-1H-isochromen-1-one], the IC50 at PI3Kδ is < 10 nM; on PI3Kγ, 10 to 1000 nM; on PI3Kα, 10 to 1000 nM; on PI3Kβ it was 10 to 1000 nM.

With `CC(Nc1ncnc2[nH]cnc12)c1oc(=O)c2ccccc2c1C1=CCN(C)CC1` (stereo not shown) [Example 45, 3-(1-(9H-purin-6-ylamino)ethyl)-4-(1-methyl-1,2,3,6-tetrahydropyridin-4-yl)-1H-isochromen-1-one hydrochloride], the IC50 at PI3Kδ was < 10 nM; on PI3Kγ, > 1000 nM; at PI3Kα, > 1000 nM; at PI3Kβ it was > 1000 nM.

Take `CC(Nc1ncnc2[nH]cnc12)c1oc(=O)c2ccccc2c1-c1ccc(CN2CCOCC2)cc1` (stereo not shown) [Example 47, 3-(1-(9H-purin-6-ylamino)ethyl)-4-(4-(morpholinomethyl)phenyl)-1H-isochromen-1-one hydrochloride]: the IC50 is 10 to 1000 nM at PI3Kδ, 10 to 1000 nM at PI3Kγ, > 1000 nM on PI3Kα and > 1000 nM at PI3Kβ.

Regarding `CC(c1oc(=O)c2ccccc2c1-c1ccccc1)n1nc(-c2cnc(N)s2)c2c(N)ncnc21` (stereo not shown) [Example 59, 3-(1-(4-amino-3-(2-aminothiazol-5-yl)-1H-pyrazolo[3,4-d]pyrimidin-1-yl)ethyl)-4-phenyl-1H-isochromen-1-one hydrochloride], the IC50 on PI3Kδ is < 10 nM; on PI3Kγ, 10 to 1000 nM; on PI3Kα it was 10 to 1000 nM; on PI3Kβ, 10 to 1000 nM.

Take `COc1ccc(-c2nn(C(C)c3oc(=O)c4ccccc4c3-c3ccccc3)c3ncnc(N)c23)cn1` (stereo not shown) [Example 60, 3-(1-(4-amino-3-(6-methoxypyridin-3-yl)-1H-pyrazolo[3,4-d]pyrimidin-1-yl)ethyl)-4-phenyl-1H-isochromen-1-one]: the IC50 is < 10 nM on PI3Kδ, 10 to 1000 nM on PI3Kγ, 10 to 1000 nM on PI3Kα and 10 to 1000 nM at PI3Kβ.

Regarding `CC(=O)Nc1ncc(-c2nn(C(C)c3oc(=O)c4ccccc4c3-c3ccccc3)c3ncnc(N)c23)s1` (stereo not shown) [Example 62, N-(5-(4-amino-1-(1-(1-oxo-4-phenyl-1H-isochromen-3-yl)ethyl)-1H-pyrazolo[3,4-d]pyrimidin-3-yl)thiazol-2-yl)acetamide], the IC50 on PI3Kδ was < 10 nM; at PI3Kγ it was 10 to 1000 nM; on PI3Kα, 10 to 1000 nM; on PI3Kβ, 10 to 1000 nM.

Turning to `CC(c1oc(=O)c2ccccc2c1C1=CCCN(C)C1)n1nc(-c2cc(O)cc(F)c2)c2c(N)ncnc21` (stereo not shown) [Example 63, 3-(1-(4-amino-3-(3-fluoro-5-hydroxyphenyl)-1H-pyrazolo[3,4-d]pyrimidin-1-yl)ethyl)-4-(1-methyl-1,2,5,6-tetrahydropyridin-3-yl)-1H-isochromen-1-one hydrochloride], the IC50 on PI3Kδ was < 10 nM; at PI3Kγ, 10 to 1000 nM; at PI3Kα, 10 to 1000 nM; at PI3Kβ, 10 to 1000 nM.

On to `CC(c1oc(=O)c2ccccc2c1C1=CCN(Cc2ccncc2)CC1)n1nc(-c2cc(O)cc(F)c2)c2c(N)ncnc21` (stereo not shown) [Example 65, 3-(1-(4-amino-3-(3-fluoro-5-hydroxyphenyl)-1H-pyrazolo[3,4-d]pyrimidin-1-yl)ethyl)-4-(1-(pyridin-4-ylmethyl)-1,2,3,6-tetrahydropyridin-4-yl)-1H-isochromen-1-one hydrochloride], for which the IC50 on PI3Kδ was < 10 nM; at PI3Kγ it was 10 to 1000 nM; at PI3Kα, 10 to 1000 nM; at PI3Kβ, 10 to 1000 nM.
